In patent US7045138B2, “Composition for mitigation of insects and/or mollusca” (American Natural Technology Sciences, Inc., priority 2000, dated 2006):

Tested on: Fire Ants
Assay: Fire ant mound field tests of bait/borate formulations
Format: in vivo, Solenopsis invicta
Experimental: The following components were tested either alone or in combinations for their ability to attract Fire Ants: • 1. Cow manure dropping in an infested area; • 2. Pelletized cow manure; • 3. Milk; • 4. Powdered, fresh and pelletized whey; • 5. Sugar solutions of varying concentrations; • 6. Raw fruit and vegetables of various kinds and concentrates; • 7. Various soft drinks containing sugar; • 8. Bacon and other raw meats; • 9. Vegetable and animal oils, both in liquid or solid; • 10. Dog and cat foods in bags, cans, or packaged in some other manner; • 11. Corn or other vegetable products in the form of meal, syrup, cracked, particles and flakes and other particles; • 12. Wheat and rice as bleached and unbleached, flower or granules; • 13. Millet seeds whole and crushed; • 14. Sunflower seeds whole, crushed and with various vegetable oils added; • 15. Microcapsules of whey and other materials, made to hold various, foods, etc.; and • 16. Capsules made of various vegetable water, sugar, starches, proteins, etc. that contain the bait and/or borates and/or DE.
Mounds were selected of varying sizes measured in diameter: • 1. Small mound (1 inch to 6 inches) • 2. Medium mound (6 inches to 3.0 feet) • 3. Large mound (3.0 feet and larger) • 4. Control
When possible, isolated mounds were selected.
The formulations were tested individually at different sites: • 1. Standard was one level teaspoon for a small mound, two for a medium mound and three or more for a large mound; and • 2. Volume vs. weight was noted.
The following data was collected for each site: • 1. Location • 2. Data and time of application • 3. Observation are conducted at: • a. One hour; • b. Four hours; • c. Twelve hours; • d. One day; • e. Two days; • f. Four days; • g. Eight days; • h. Sixteen days; and • i. Intermittent observations based upon climatic conditions. • 4. Weather data collected include: • a. Temperature; • b. Humidity; • c. Rainfall (time of day and extent); and • d. Wind speed and direction • 5. General observations
The time of application is preferably near evening (5 p.m. or later) or early morning (5 a.m. to 9 a.m.).

## calcium borate
5% substituted for the DOT, with whey
  performance: superior performance

## Disodium octoborate tetrahydrate [DOT]
DOT combined with whey bait
  degree of control: high degree of control
Incorporated with the baits tested
  acceptance by the Fire Ants: readily accepted
Preliminary data
  acceptable formulation level for control into the second generation: ~1.0%
  acceptable formulation level for first generation control: ~0.05 % of the formulation
